Measured values taken from patent US20210300943A1, “OGA INHIBITOR COMPOUNDS” (Janssen Pharmaceutica NV, priority 2018, published 2021).

Columns and labels:
OGA = molecular target: T1, OGA (Homo sapiens, UniProt O60502); assay: OGA cellular assay (ICC detection of O-GlcNAcylated proteins in HEK293 cells inducible for P301L mutant human Tau); format: cell-based; settings: for Emax: HEK293, HEK293 cells inducible for P301L mutant human Tau; for EC50: 6 hours incubation, read-out: Cellular hOGA, pEC50 (converted)
T1 construct: endogenous in cells; host or cells: HEK293 cells inducible for P301L mutant human Tau (2N4R)
T1 sequence (O60502 1-916): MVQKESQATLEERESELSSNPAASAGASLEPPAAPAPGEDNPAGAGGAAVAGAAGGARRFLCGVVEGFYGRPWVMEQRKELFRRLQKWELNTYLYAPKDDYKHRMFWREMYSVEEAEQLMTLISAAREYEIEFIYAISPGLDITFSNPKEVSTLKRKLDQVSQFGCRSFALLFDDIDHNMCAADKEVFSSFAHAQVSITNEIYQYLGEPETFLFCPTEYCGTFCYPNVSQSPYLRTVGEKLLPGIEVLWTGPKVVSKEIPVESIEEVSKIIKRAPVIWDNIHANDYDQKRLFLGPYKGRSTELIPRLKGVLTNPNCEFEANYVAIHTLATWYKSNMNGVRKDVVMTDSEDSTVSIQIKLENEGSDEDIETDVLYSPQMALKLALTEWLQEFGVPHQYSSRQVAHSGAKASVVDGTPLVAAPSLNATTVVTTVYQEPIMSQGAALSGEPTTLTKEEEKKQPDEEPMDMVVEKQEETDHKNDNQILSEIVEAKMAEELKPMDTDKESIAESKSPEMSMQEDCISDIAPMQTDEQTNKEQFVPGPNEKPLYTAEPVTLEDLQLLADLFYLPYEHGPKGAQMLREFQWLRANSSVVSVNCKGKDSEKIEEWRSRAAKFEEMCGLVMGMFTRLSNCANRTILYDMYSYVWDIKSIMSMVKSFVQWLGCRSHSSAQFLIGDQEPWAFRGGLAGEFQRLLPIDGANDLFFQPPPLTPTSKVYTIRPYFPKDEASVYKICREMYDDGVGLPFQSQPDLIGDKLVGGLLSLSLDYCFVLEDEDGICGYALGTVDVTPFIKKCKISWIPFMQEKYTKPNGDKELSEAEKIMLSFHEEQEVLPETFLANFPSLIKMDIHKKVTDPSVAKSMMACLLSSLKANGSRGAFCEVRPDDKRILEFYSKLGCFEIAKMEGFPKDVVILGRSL
Experimental: HEK293 cells inducible for P301L mutant human Tau (isoform 2N4R) were established at Janssen. Thiamet-G was used for both plate validation (high control) and as reference compound (reference EC50 assay validation). OGA inhibition is evaluated through the immunocytochemical (ICC) detection of O-GlcNAcylated proteins by the use of a monoclonal antibody (CTD110.6; Cell Signaling, #9875) detecting 0-GlcNAcylated residues as previously described (Dorfmueller et al. 2010 Chemistry & biology, 17:1250). Inhibition of OGA will result in an increase of O-GlcNAcylated protein levels resulting in an increased signal in the experiment. Cell nuclei are stained with Hoechst to give a cell culture quality control and a rough estimate of immediate compounds toxicity, if any. ICC pictures are imaged with a Perkin Elmer Opera Phenix plate microscope and quantified with the provided software Perkin Elmer Harmony 4.1.
Cells were propagated in DMEM high Glucose (Sigma, #D5796) following standard procedures. 2 days before the cell assay cells are split, counted and seeded in Poly-D-Lysine (PDL) coated 96-wells (Greiner, #655946) plate at a cell density of 12,000 cells per cm^2 (4,000 cells per well) in 100 μl of Assay Medium (Low Glucose medium is used to reduce basal levels of GlcNAcylation) (Park et al. 2014 The Journal of biological chemistry 289:13519). At the day of compound test medium from assay plates was removed and replenished with 90 μl of fresh Assay Medium. 10 μl of compounds at a 10 fold final concentration were added to the wells. Plates were centrifuged shortly before incubation in the cell incubator for 6 hours. DMSO concentration was set to 0.2%. Medium is discarded by applying vacuum. For staining of cells medium was removed and cells washed once with 100 μl D-PBS (Sigma, #D8537). From next step onwards unless other stated assay volume was always 50 μl and incubation was performed without agitation and at room temperature. Cells were fixed in 50 μl of a 4% paraformaldehyde (PFA, Alpha aesar, #043368) PBS solution for 15 minutes at room temperature. […] Before analysis samples were washed 2 times manually for 5 minutes in ICC base buffer.
Imaging is performed using Perkin Elmer Phenix Opera using a water 20× objective and recording 9 fields per well. Intensity readout at 488 nm is used as a measure of O-GlcNAcylation level of total proteins in wells. To assess potential toxicity of compounds nuclei were counted using the Hoechst staining. IC50-values are calculated using parametric non-linear regression model fitting. As a maximum inhibition Thiamet G at a 200 uM concentration is present on each plate. In addition, a concentration response of Thiamet G is calculated on each plate.

[1] = molecular target: T2, recombinant human Meningioma Expressed Antigen 5 (MGEA5), also referred to as O-GlcNAcase (OGA) (Homo sapiens, UniProt O60502); assay: OGA biochemical assay (inhibition of FM-GlcNAc hydrolysis, fluorescence); settings: for Emax / Enzymatic Emax (%): maximal effect; for Emax: read-out: Enzymatic Emax (%); for IC50: read-out: Enzymatic hOGA, pIC50 (converted)
T2 construct: Full length OGA enzyme was purchased at OnGene (cat #TP322411); purchased OnGene (so in the source)
T2 sequence (O60502 1-916): T1 sequence (O60502 1-916)
From the text: The assay is based on the inhibition of the hydrolysis of fluorescein mono-β-D-N-Acetyl-Glucosamine (FM-GlcNAc) (Mariappa et al. 2015, Biochem J 470:255) by the recombinant human Meningioma Expressed Antigen 5 (MGEA5), also referred to as O-GlcNAcase (OGA). The hydrolysis FM-GlcNAc (Marker Gene technologies, cat #M1485) results in the formation of β-D-N-glucosamineacetate and fluorescein. The fluorescence of the latter can be measured at excitation wavelength 485 nm and emission wavelength 538 nm. An increase in enzyme activity results in an increase in fluorescence signal. Full length OGA enzyme was purchased at OnGene (cat #TP322411). The enzyme was stored in 25 mM Tris.HCl, pH 7.3, 100 mM glycine, 10% glycerol at −20° C. Thiamet G and GlcNAcStatin were tested as reference compounds (Yuzwa et al. 2008 Nature Chemical Biology 4:483; Yuzwa et al. 2012 Nature Chemical Biology 8:393). The assay was performed in 200 mM Citrate/phosphate buffer supplemented with 0.005% Tween-20. 35.6 g Na2HPO42H2O (Sigma, #C0759) were dissolved in 1 L water to obtain a 200 mM solution. 19.2 g citric acid (Merck, #1.06580) was dissolved in 1 L water to obtain a 100 mM solution. pH of the sodiumphosphate solution was adjusted with the citric acid solution to 7.2. The buffer to stop the reaction consists of a 500 mM Carbonate buffer, pH 11.0. 734 mg FM-GlcNAc were dissolved in 5.48 mL DMSO to obtain a 250 mM solution and was stored at −20° C. OGA was used at a 2 nM concentration and FM-GlcNAc at a 100 uM final concentration. Dilutions were prepared in assay buffer.
50 nl of a compound dissolved in DMSO was dispensed on Black Proxiplate TM 384 Plus Assay plates (Perkin Elmer, #6008269) and 3 μl fl-OGA enzyme mix added subsequently. Plates were pre-incubated for 60 min at room temperature and then 2 μl FM-GlcNAc substrate mix added. […] Plates were briefly centrifuged for 1 min at 1000 rpm and incubate at room temperature for 6 h. To stop the reaction 5 μl STOP buffer were added and plates centrifuge again 1 min at 1000 rpm. Fluorescence was quantified in the Thermo Scientific Fluoroskan Ascent or the PerkinElmer EnVision with excitation wavelength 485 nm and emission wavelength 538 nm.
For analysis a best-fit curve is fitted by a minimum sum of squares method. From this an IC50 value and Hill coefficient was obtained. High control (no inhibitor) and low control (saturating concentrations of standard inhibitor) were used to define the minimum and maximum values.

[2] = maximal effect, Thiamet G 200 uM as maximum
[3] = HEK293 cells inducible for P301L mutant human Tau

Compound | Emax (OGA; [2]) [%] | EC50 (OGA; [3]) [nM] | Emax [1] [%] | IC50 [1] [nM] | Enzymatic Emax (%) [1] [%] | Cellular Emax (%) (OGA; HEK293 cells inducible for P301L mutant human Tau, maximal effect, Thiamet G 200 uM as maximum)
Cc1cc(C[C@H]2CCCN(C(C)c3cnc4c(c3)OCCN4)C2)cc(C)n1 (mixture of isomers) [Product 50] | 85 | 39.8 | 103 | 10 |  | 
COc1cc(OC[C@H]2CCCN([C@H](C)c3ccc4c(n3)OCCO4)C2)cc(C)n1 (racemic) [Product 110] | 68 | 316 | 102 | 12.6 |  | 
Cc1cc(OC[C@H]2CCCN(C(C)c3nc4c(cc3F)CCO4)C2)cc(C)n1 (mixture of isomers) [Product 178] | 104 | 2.51 | 95 | 2.51 |  | 
Cc1cc(OC[C@@H]2CCCN([C@@H](C)c3ccc4c(n3)OCCO4)C2)cc(C)n1 (relative stereo) [Product 108] | -8 | > 1000 | 37 | > 10000 |  | 
Cc1cc(OC[C@@H]2CCCN([C@H](C)c3ccc4c(n3)OCCO4)C2)cc(C)n1 (relative stereo) [Product 109] | 37 | > 1000 | 95 | 251 |  | 
COc1cc(NC[C@H]2CCCN(C(C)c3ccc4c(n3)OCCO4)C2)cc(C)n1 (single isomer, unassigned) [Product 26] | 85 | 5.01 |  | 2.51 | 101 | 
Cc1cc(NCC2CCCN(C(C)c3ccc4c(n3)OCCO4)C2)cc(C(F)(F)F)n1 (single isomer, unassigned) [Product 33] | 83 | 31.6 | 102 | 2.51 |  | 
Cc1cc(C[C@H]2CCCN(C(C)c3cc4c(cc3F)OCCO4)C2)cc(C)n1 (single isomer, unassigned) [Product 42] | 86 | 6.31 | 99 | 2 |  | 
Cc1cc(C[C@H]2CCCN([C@@H](C)c3ccc4c(n3)OCCO4)C2)cc(C)n1 (single isomer, unassigned) [Product 46] | 90 | 15.8 | 101 | 3.16 |  | 
Cc1cc(C[C@H]2CCCN(C(C)c3cnc4c(c3)OCCN4)C2)cc(C)n1 (single isomer, unassigned) [Product 52] | 92 | 6.31 |  | 1.26 | 104 | 
Cc1cc(C[C@H]2CCCN(C(C)c3cnc4c(c3)OCCO4)C2)cc(C)n1 (single isomer, unassigned) [Product 132] | 77 | 79.4 | 103 | 5.01 |  | 
Cc1cc(OC[C@H]2CCCN(C(C)c3ccc4c(n3)OCCO4)C2)cc(C)n1 (single isomer, unassigned) [Product 139] | 88 | 20 | 98 | 7.94 |  | 
Cc1cc(OC[C@H]2CCCN([C@@H](C)c3ccc4c(n3)OCCO4)C2)cc(C)n1 (single isomer, unassigned) [Product 140] | 2 | > 1000 | 72 | 3980 |  | 
Cc1cc([C@H]2CCCN(C(C)c3ccc4c(n3)OCCO4)C2)cc(C)n1 (single isomer, unassigned) [Product 149] | 93 | 31.6 | 100 | 10 |  | 
Cc1cc([C@@H]2CCCN(C(C)c3ccc4c(n3)OCCO4)C2)cc(C)n1 (single isomer, unassigned) [Product 150] | 3 | > 1000 | 92 | 2000 |  | 
Cc1cc(OC[C@H]2CCCN(C(C)c3nc4c(cc3F)OCCO4)C2)cc(C)n1 (single isomer, unassigned) [Product 156] |  | 316 |  | 251 | 97 | 55
Cc1cc([C@H]2CCCN([C@H](C)c3ccc4c(n3)OCCO4)C2)cc(C)n1 (single isomer, unassigned) [Product 158] | 89 | 39.8 | 102 | 7.94 |  | 
Cc1cc([C@H]2CCCN([C@@H](C)c3ccc4c(n3)OCCO4)C2)cc(C)n1 (single isomer, unassigned) [Product 159] | 0 | > 1000 | 91 | 1260 |  | 
Cc1cc([C@@H]2CCCN([C@H](C)c3ccc4c(n3)OCCO4)C2)cc(C)n1 (single isomer, unassigned) [Product 160] | 5 | > 1000 | 89 | 2000 |  | 
Cc1cc([C@@H]2CCCN([C@@H](C)c3ccc4c(n3)OCCO4)C2)cc(C)n1 (single isomer, unassigned) [Product 161] | -4 | > 1000 | 79 | 3160 |  | 
